Patent publication US9994528B2, “Certain amino-pyridines and amino-triazines, compositions thereof, and methods for their use” (Cytokinetics, Inc., priority 2010, dated 2018)

Each compound was assayed on rabbit skeletal myofibrils (approximately 90% fast fibers) (assay: Activation of fast skeletal myofibrils (PUMA coupled-enzyme ATPase assay)). Conditions: AC1.4 = concentration at which the compound increased the enzymatic activity by 40%; myofibril suspension at calcium level pCa25; PM12 buffer pH 6.8.
Type: biochemical
Procedure, shortened: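 Fast skeletal myofibrils from rabbit psoas muscle (roughly 90% fast fibers) were homogenized, washed with Triton X-100 to strip membranes, and frozen in 10% sucrose at −80° C. Their calcium-regulated ATPase activity was measured at pCa25 in PM12 buffer (12 mM Pipes, 2 mM MgCl2, 1 mM DTT, pH 6.8). A pyruvate kinase/lactate dehydrogenase system coupled ADP regeneration to NADH oxidation, read at 340 nm.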

SMILES | Mean AC1.4
COC(=O)c1ccc(-c2cnc(NC(C)(C)c3ncccc3F)nn2)c(F)c1 [methyl 3-fluoro-4-(3-{[1-(3-fluoro(2-pyridyl))-isopropyl]amino}(1,2,4-triazin-6-yl))benzoate] | D (D=>20 uM)
COC(=O)c1ccc(F)c(-c2cnc(NCC3(c4ccccn4)CCC3)nn2)c1 [methyl 4-fluoro-3-(3-{[(2-pyridylcyclobutyl)methyl]amino}(1,2,4-triazin-6-yl))benzoate] | C (C=10-20 uM)
COC(=O)c1ccc(F)c(-c2cnc(NC(C)(C)c3cccc(S(C)(=O)=O)c3)nn2)c1 [methyl 4-fluoro-3-[3-({1-methyl-1-[3-(methylsulfonyl)phenyl]ethyl}amino)(1,2,4-triazin-6-yl)]benzoate] | D (D=>20 uM)
OCc1cnc(-c2cnc(NC[C@]3(c4ncccc4F)C[C@H](F)C3)nn2)s1 [{2-[3-({[3-fluoro-1-(3-fluoro(2-pyridyl))cyclobutyl]methyl}amino)-1,2,4-triazin-6-yl]-1,3-thiazol-5-yl}methan-1-ol] | B (B=1-10 uM)
OCc1cnc(-c2cnc(NCC3(c4ncccc4F)CCC3)nn2)s1 [{2-[3-({[(3-fluoro-2-pyridyl)cyclobutyl]methyl}amino)-1,2,4-triazin-6-yl]-1,3-thiazol-5-yl}methan-1-ol] | C (C=10-20 uM)
CNC(=O)c1cccc(-c2cnc(NC[C@]3(c4ncccc4Cl)C[C@H](F)C3)nn2)c1 [{3-[3-({[1-(3-chloro(2-pyridyl))-3-fluorocyclobutyl]methyl}amino)(1,2,4-triazin-6-yl)]phenyl}-N-methylcarboxamide] | B (B=1-10 uM)
CNC(=O)c1cccc(-c2cnc(NC[C@]3(c4ncccc4F)C[C@H](F)C3)nn2)c1 [{3-[3-({[3-fluoro-1-(3-fluoro(2-pyridyl))cyclobulyl]methyl}amino)(1,2,4-triazin-6-yl)]phenyl}-N-methylcarboxamide] | B (B=1-10 uM)
CC(C)(Nc1ncc(-c2ncc(CN)s2)nn1)c1ncccc1Cl [{6-[5-(aminomethyl)(1,3-thiazol-2-yl)](1,2,4-triazin-3-yl)}[1-(3-chloro(2-pyridyl))-isopropyl]amine] | D (D=>20 uM)
NCc1cnc(-c2cnc(NC[C@]3(c4ncccc4F)C[C@H](F)C3)nn2)s1 [{6-[5-(aminomethyl)(1,3-thiazol-2-yl)](1,2,4-triazin-3-yl)}{[3-fluoro-1-(3-fluoro(2-pyridyl))cyclobutyl]methyl}amine] | B (B=1-10 uM)
CC(C)(Nc1ncc(-c2cc(CN)ccc2F)nn1)c1ncccc1F [{6-[5-(aminomethyl-2-fluorophenyl](1,2,4-triazin-3-yl)}[1-(3-fluoro(2-pyridyl))-isopropyl]amine] | D (D=>20 uM)

Further lines, results first:

Mean AC1.4 | SMILES
B (B=1-10 uM) | CNC(=O)c1ccc(F)c(-c2cnc(NCC3(c4ncccc4Cl)CC(F)(F)C3)nn2)c1 [{3-[3-({[1-(3-chloro(2-pyridyl))-3,3-difluorocyclobulyl]methyl}amino)(1,2,4-triazin-6-yl)]-4-fluorophenyl}-N-methylcarboxamide]
A (A=<1 uM) | CNC(=O)c1ccc(F)c(-c2cnc(NC[C@]3(c4ncccc4Cl)C[C@H](F)C3)nn2)c1 [{3-[3-({[1-(3-chloro(2-pyridyl))-3-fluorocyclobutyl]methyl}amino)(1,2,4-triazin-6-yl)]-4-fluorophenyl}-N-methylcarboxamide]
A (A=<1 uM) | CNC(=O)c1ccc(O)c(-c2cnc(NC[C@]3(c4ncccc4F)C[C@H](F)C3)nn2)c1 [{3-[3-({[3-fluoro-1-(3-fluoro(2-pyridyl))cyclobutyl]methyl}amino)(1,2,4-triazin-6-yl)]-4-hydroxyphenyl}-N-methylcarboxamide]
B (B=1-10 uM) | CNC(=O)c1ccc(F)c(-c2cnc(NC[C@]3(c4ncccc4F)C[C@H](F)C3)nn2)c1 [{4-fluoro-3-[3-({[3-fluoro-1-(3-fluoro(2-pyridyl))cyclobutyl]methyl}amino)(1,2,4-triazin-6-yl)]phenyl}-N-methylcarboxamide]
B (B=1-10 uM) | CNC(=O)c1ccc(F)c(-c2cnc(NCC3(c4ncccc4F)CCC3)nn2)c1 [{4-fluoro-3-[3-({[(3-fluoro(2-pyridyl))cyclobutyl]methyl}amino)(1,2,4-triazin-6-yl)]phenyl}-N-methylcarboxamide]
